Measured values reported in ChEMBL document CHEMBL3576827, “New anti-inflammatory tocopherol-derived metabolites from the Taiwanese soft coral Cladiella hirsuta” (Bioorg Med Chem Lett, 2015).

Experiments:
Settings in all cases: Neutrophil
[1] = (§1) Antiinflammatory activity in human neutrophils assessed as inhibition of fMLP/CB-induced superoxide anion generation by measuring superoxide dismutase-inhibitable reduction of ferricytochrome c at 10 uM preincubated for 5 mins followed by fMLP/CB-induction measured after 10 mins by spectrophotometric analysis; assay type: functional
[2] = Antiinflammatory activity in human neutrophils assessed as inhibition of fMLP/CB-induced elastase release using MeO-Suc-Ala-Ala-Pro-Val-p-nitroanilide as elastase substrate at 10 uM preincubated for 5 mins followed by fMLP/CB-induction by spectroscopic analysis; assay type: functional
[3] = as §1, with “c” for “c at 10 uM”; assay type: functional, cell-based
[4] = Antiinflammatory activity in human neutrophils assessed as inhibition of fMLP/CB-induced elastase release using MeO-Suc-Ala-Ala-Pro-Val-p-nitroanilide as elastase substrate preincubated for 5 mins followed by fMLP/CB-induction by spectroscopic analysis; assay type: functional, cell-based

IC50 [3] | IC50 [4] | Structure (SMILES) | inhibition at 10 µM [1] | inhibition at 10 µM [2]
4.1 µM | 3.7 µM | COC(=O)C(C)CCC[C@]1(C)CC[C@]2(O1)C(=O)C(C)=C(C)[C@@]2(O)C(C)=O (stereo not given in full) | 78.3% | 89.5%
> 10 µM | > 10 µM | COC(=O)C(C)CCCC(C)(O)CCC1=C(C)C(=O)C2(C)OC2(C)C1=O (stereo not given) | 8.5% | 21.2%
0.6 µg/mL | 1.2 µg/mL | O=c1cc(N2CCOCC2)oc2c(-c3ccccc3)cccc12 [LY-294002] |  | 
